This assay deals with PMNs. Briefly: LC-MS of glycolysis and pentose phosphate pathway metabolites. The class given is cell-based, human. As for the experimental part:
Neutrophils (1 × 10^7) were untreated or pretreated with 0.5 μM NA-11 for 25 min, and then activated with 50 nM PMA for 30 min. Cell were washed twice in D-PBS and frozen in liquid nitrogen. Metabolites were extracted following protein precipitation using 500 μL cold (−80°C) MeOH:H2O (8:2, V:V) mixture. Aliquots (250 μL) were evaporated and reconstituted with 75 μL of MeOH:H2O (8:2, V:V) containing a series of stable isotope labeled internal standards. LC-MS analysis was performed on a Shimadzu Nexera HPLC series system (Shimadzu, Kyoto, Japan) couple with a Thermo Q Exactive Plus Hybrid Quadrupole-Orbitrap Mass Spectrometer (Thermo Fisher Scientific, Waltham, MA, USA). A Phenomenex Luna NH2 HPLC column (100 Å, 250 mm × 2 mm × 3 μm, Phenomenex, Torrance, CA, USA) was used to separate the analytes of interest. Samples (5 μL) were analyzed under Heated Electrospray Ionization (HESI) in negative mode with a flow rate of 0.4 mL/min and a total run time of 50 min. The mobile phases consisted of (A) 20 mM ammonium hydroxide and 20 mM ammonium acetate in H2O and (B) acetonitrile. The gradient was 0 min, 85% B; 0.5 min, 85% B; 15 min, 0% B; 38 min, 0% B; 40 min, 85% B; 50 min, 85% B. The autosampler temperature was 4°C, and the column temperature was 40°C. The Q Exactive Plus Mass Spectrometer parameters were: sheath gas flow rate, 50 units; aux gas flow rate, 13 units; aux gas temperature, 425°C; capillary temperature, 263°C; spray voltage, −2500 V; scan mode, full MS; scan range, 60-900 m/z; resolution, 70,000; AGC target, 3 × 10^6; maximum IT, 200 ms. Data was processed with TraceFinder (Thermo Fisher Scientific, Waltham, MA, USA). %RSDs of a series of stable isotope-labeled internal standards were calculated to check system suitability and data robustness. Relative MS peak area ratio (Peak Area of Analyte / Peak Area of Internal Standard) was used for compound quantification. […] Pyruvate concentration was quantified using a calibration curve of chemical standard (with stable isotope labeled internal standard, Pyruvate-^13C3) in the surrogate matrix.

The mark [1] stands for this setting: in the context of PMA activation.

As to `CC(=O)Nc1ccc2c(c1)OCc1cc(-c3ccccc3C#CCCCO)nn1C2` [NA-11], the “levels of FBP” value (compound alone, no PMA) is given as “slightly increased levels of FBP”. In addition, under setting [1], the “glycolysis metabolites (FBP, DHAP, G-3-P)” value is listed as “increased glycolysis metabolites” and the “pentose phosphate pathway metabolites” value was “maintained pentose phosphate pathway metabolites at baseline levels”.

Values taken from paper PMC8802628, “Selective activation of PFKL suppresses the phagocytic oxidative burst” (Cell, 2021).
